Calls of active or inactive are those of the source.
Columns and labels:
[1] = system: HeLa; test: HeLa cell cytotoxicity, dose response, cytotoxicity control for MITF activator project, CellTiter-Glo luminescence, cherry-pick samples (AID 540259); assay type: functional, cell-based; details: Homo sapiens
[2] = target: T1, Sentrin-specific protease 6 (Homo sapiens, UniProt Q9GZR1); assay type: functional;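 note: Luminescence-based dose-response confirmatory assay of SENP6 inhibition, following up an ultra-high-throughput screen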
T1 sequence (Q9GZR1 whole entry): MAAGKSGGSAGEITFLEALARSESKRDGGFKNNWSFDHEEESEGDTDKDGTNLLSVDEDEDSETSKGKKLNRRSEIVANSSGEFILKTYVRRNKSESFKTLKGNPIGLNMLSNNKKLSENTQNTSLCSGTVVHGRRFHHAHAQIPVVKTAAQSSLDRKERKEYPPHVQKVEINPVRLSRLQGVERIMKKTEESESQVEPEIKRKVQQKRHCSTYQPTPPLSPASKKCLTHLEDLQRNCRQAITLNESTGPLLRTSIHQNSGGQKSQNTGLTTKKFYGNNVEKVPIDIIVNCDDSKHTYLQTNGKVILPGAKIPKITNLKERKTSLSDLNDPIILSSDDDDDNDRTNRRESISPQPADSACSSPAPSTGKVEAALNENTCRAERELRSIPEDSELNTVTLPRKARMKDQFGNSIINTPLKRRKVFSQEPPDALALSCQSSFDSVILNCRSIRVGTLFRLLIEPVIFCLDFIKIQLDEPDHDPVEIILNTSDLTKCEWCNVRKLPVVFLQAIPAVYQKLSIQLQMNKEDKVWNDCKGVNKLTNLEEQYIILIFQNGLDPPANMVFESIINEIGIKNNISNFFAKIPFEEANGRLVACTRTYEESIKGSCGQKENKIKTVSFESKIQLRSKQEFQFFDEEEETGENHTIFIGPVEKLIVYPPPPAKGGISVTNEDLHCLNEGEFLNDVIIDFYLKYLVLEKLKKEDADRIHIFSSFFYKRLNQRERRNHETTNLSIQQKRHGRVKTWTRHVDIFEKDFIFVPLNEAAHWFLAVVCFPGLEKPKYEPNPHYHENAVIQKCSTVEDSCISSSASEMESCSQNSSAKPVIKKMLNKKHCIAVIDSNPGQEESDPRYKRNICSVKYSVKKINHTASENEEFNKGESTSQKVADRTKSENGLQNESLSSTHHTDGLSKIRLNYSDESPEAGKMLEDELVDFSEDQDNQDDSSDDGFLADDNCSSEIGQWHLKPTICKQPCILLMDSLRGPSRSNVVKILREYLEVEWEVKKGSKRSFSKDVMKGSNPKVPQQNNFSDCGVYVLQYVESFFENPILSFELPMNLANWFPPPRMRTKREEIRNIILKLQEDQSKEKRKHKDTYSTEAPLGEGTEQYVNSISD

[3] = target: T2, Caspase-3 (Homo sapiens, UniProt P42574); assay type: functional;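 note: Dose-response selectivity test against caspase-3 for candidate inhibitors of sentrin-specific proteases (SENPs)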
T2 sequence (P42574 whole entry): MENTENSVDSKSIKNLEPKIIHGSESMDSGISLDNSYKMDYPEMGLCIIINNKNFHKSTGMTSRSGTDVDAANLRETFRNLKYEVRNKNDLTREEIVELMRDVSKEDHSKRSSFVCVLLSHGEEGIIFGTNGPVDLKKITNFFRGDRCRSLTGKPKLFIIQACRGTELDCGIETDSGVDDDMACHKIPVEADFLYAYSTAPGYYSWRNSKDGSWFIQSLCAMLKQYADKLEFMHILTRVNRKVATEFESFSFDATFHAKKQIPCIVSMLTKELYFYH

[4] = target: T3, Sentrin-specific protease 8 (Homo sapiens, UniProt Q96LD8); assay type: functional;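 note: luminescence read-out of SENP8 inhibition, dose-response confirmation following an ultra-high-throughput screen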
T3 sequence (Q96LD8 whole entry): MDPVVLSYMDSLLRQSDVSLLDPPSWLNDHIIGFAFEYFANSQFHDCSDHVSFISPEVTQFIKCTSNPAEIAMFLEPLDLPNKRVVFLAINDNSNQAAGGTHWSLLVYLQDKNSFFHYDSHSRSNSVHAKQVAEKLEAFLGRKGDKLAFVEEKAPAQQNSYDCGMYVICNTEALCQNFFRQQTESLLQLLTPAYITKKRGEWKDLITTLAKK

[5] = target: 5-hydroxytryptamine receptor 5A (Homo sapiens, UniProt P47898); test: Counterscreen for agonists of OPRM1-OPRD1 heterodimerization: luminescence-based cell-based high throughput dose response assay to identify agonists of 5-hydroxytryptamine (serotonin) 5A receptor (HTR5A). [Related pubchem assays (depositor defined):AID504326, AID504355, AID504692, AID504904, AID504905]; assay type: functional
[6] = target: T4, Short transient receptor potential channel 4 (Mus musculus, UniProt Q9QUQ5); test: mouse TRPC4 channel activators, dose response, cell-based, HEK293 TRPC4/mu-opioid, Fluo-4 calcium (AID 434937); assay type: functional
T4 sequence (Q9QUQ5 whole entry): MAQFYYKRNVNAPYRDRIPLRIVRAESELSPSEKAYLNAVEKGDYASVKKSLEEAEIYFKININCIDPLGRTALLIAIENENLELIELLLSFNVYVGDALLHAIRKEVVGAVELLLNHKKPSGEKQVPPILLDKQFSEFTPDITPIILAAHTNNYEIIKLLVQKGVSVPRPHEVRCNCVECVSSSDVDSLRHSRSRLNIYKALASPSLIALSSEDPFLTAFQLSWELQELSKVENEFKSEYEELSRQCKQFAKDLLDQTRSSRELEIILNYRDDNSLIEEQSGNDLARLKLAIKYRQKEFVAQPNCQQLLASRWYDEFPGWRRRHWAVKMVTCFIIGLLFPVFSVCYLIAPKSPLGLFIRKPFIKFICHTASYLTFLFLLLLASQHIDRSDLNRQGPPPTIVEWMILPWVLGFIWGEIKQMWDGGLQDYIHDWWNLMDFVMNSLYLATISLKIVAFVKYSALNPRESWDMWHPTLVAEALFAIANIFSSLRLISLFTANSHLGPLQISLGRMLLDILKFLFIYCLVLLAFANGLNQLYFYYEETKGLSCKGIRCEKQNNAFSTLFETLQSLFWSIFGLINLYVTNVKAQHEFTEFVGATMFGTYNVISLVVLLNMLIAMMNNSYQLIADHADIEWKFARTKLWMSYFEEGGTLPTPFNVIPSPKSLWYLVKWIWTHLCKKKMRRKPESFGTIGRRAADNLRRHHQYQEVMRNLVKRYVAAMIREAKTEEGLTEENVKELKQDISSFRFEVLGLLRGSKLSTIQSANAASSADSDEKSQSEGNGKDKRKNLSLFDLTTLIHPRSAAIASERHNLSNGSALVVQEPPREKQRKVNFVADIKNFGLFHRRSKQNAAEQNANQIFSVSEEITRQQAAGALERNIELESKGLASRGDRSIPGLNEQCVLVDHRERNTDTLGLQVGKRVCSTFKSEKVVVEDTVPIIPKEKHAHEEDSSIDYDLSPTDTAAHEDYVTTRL

[7] = target: Delta-type opioid receptor (Homo sapiens, UniProt P41143); test: Counterscreen for agonists of heterodimerization of the mu 1 (OPRM1) and delta 1 (OPRD1) opioid receptors: Luminescence-based cell-based high throughput dose response assay to identify agonists of OPRD1 homodimerization. [Related pubchem assays (depositor defined):AID504326, AID504355, AID504692, AID504904, AID504905]; assay type: functional
[8] = target: Mu-type opioid receptor (Homo sapiens, UniProt P35372); test: Counterscreen for agonists of heterodimerization of the mu 1 (OPRM1) and delta 1 (OPRD1) opioid receptors: Luminescence-based cell-based high throughput dose response assay to identify agonists of OPRM1 homodimerization.; assay type: functional;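 note: U2OS cells expressing OPRM1 and beta-arrestin as split beta-galactosidase partners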
[9] = target: ATP-dependent molecular chaperone HSP82 (Candida albicans (strain WO-1) (Yeast), UniProt C4YTQ8); test: loss of DOC-induced GRE-beta-galactosidase reporter signal, dose response, Hsp90 inhibitor project, S. cerevisiae, luminescence (AID 2400); assay type: functional, cell-based;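 note: beta-galactosidase luminescence from glucocorticoid response element reporter as proxy for Hsp90 function; inhibitor potency where signal loss means Hsp90 inhibition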
[10] = target: T5, Serine/threonine-protein phosphatase (Candida dubliniensis (strain CD36 / CBS 7987 / NCPF 3949 / NRRLY-17841) (Yeast), UniProt B9W6M3); test: calcineurin pathway inhibitors in yeast reporter, dose response, S. cerevisiae, CDRE-lacZ, luminescence, secondary (AID 2388); assay type: functional, cell-based;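 note: yeast reporter cells carrying a calcineurin-responsive lacZ construct stimulated with calcium chloride; luminescent beta-galactosidase reporter signal in whole cells rather than isolated phosphatase activity; potency for inhibition where a drop in reporter signal means calcineurin blockade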
T5 sequence (B9W6M3 whole entry): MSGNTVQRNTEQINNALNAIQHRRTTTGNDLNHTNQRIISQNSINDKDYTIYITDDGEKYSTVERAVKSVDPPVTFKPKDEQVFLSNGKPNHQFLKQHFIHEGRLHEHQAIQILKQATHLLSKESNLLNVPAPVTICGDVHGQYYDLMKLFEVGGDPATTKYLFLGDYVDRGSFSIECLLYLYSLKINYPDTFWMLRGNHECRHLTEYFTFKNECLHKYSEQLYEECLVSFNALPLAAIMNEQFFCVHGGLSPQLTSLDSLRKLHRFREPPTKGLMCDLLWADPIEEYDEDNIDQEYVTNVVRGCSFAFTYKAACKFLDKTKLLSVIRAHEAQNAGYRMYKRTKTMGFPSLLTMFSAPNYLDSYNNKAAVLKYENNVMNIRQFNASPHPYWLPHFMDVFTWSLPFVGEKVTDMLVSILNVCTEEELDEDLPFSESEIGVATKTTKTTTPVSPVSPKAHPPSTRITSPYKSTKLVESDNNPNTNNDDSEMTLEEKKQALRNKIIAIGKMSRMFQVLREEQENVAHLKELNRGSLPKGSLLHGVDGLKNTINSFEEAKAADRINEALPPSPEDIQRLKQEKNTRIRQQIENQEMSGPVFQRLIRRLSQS

[11] = C. albicans growth with fluconazole, confirmation, fluorescence, retest (AID 2467); assay type: functional, cell-based
[12] = NIH-3T3 fibroblast cytotoxicity, dose response, cytotoxicity control, cell-based, fluorescence, Alamar Blue, secondary assay (AID 2327); assay type: functional;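 note: NIH-3T3 mouse fibroblasts cultured with fluconazole at 8 µg/mL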
[13] = target: T6, Corticotropin-releasing factor receptor 2/Corticotropin-releasing factor-binding protein (Homo sapiens, UniProt P24387+Q13324); test: activators of CRF receptor 2 with binding protein – uHTS hits, confirmation (AID 602473); assay type: functional; details: read-out: EC50_Mean
T6 sequence (Q13324 whole entry): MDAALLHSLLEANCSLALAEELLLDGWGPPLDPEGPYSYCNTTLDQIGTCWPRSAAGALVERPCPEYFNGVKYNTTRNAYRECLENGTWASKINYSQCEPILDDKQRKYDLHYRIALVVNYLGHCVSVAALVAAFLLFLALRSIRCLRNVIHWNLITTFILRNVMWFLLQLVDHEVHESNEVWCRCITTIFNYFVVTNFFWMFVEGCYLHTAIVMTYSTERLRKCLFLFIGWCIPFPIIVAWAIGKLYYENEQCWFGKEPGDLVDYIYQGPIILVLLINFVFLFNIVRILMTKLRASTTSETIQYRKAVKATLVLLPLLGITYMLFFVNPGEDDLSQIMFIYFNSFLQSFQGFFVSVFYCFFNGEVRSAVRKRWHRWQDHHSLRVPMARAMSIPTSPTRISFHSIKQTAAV
T6 sequence (P24387 whole entry): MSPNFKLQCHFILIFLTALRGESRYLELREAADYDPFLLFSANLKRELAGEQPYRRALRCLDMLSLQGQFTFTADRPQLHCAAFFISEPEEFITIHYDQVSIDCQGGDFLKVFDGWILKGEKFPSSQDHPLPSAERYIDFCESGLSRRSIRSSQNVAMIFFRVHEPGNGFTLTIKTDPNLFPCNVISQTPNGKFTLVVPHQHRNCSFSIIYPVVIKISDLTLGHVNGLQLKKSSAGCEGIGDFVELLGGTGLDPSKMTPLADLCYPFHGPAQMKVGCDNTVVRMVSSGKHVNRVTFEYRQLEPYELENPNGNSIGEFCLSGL

[14] = target: T6, Corticotropin-releasing factor receptor 2/Corticotropin-releasing factor-binding protein; test: Dose Response confirmation of uHTS hits for small molecule antagonists of the CRF-binding protein and CRF-R2 receptor complex.; assay type: functional; details: read-out: IC50_Mean
[15] = system: H4; test: Luminescence Cell-Based Dose Response HTS to Identify Activators of 5'UTR Stem-Loop Driven Prion Protein mRNA Translation in H4 Neuroglioblastoma Cells. [Related pubchem assays: 1829 (Project Summary), 1814 (Primary HTS)]; assay type: functional; details: Homo sapiens
[16] = Luminescence Cell-Based Dose Response HTS to Identify Activators of Luciferase Translation or Activity in H4 […] Cells. [Related pubchem assays: 1829 (Project Summary), 1814 (Primary HTS)]; assay type: functional

Delta-type opioid receptor, sequence (P41143 whole entry): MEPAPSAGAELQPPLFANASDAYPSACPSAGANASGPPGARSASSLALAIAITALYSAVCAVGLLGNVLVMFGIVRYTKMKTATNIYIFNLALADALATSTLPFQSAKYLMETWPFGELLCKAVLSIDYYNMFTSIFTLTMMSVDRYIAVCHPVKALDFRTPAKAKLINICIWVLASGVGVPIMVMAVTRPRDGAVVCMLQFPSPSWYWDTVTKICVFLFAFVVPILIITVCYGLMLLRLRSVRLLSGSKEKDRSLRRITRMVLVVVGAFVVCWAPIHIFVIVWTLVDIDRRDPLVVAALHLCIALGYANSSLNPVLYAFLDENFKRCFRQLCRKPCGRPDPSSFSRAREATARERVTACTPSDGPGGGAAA
5-hydroxytryptamine receptor 5A, sequence (P47898 whole entry): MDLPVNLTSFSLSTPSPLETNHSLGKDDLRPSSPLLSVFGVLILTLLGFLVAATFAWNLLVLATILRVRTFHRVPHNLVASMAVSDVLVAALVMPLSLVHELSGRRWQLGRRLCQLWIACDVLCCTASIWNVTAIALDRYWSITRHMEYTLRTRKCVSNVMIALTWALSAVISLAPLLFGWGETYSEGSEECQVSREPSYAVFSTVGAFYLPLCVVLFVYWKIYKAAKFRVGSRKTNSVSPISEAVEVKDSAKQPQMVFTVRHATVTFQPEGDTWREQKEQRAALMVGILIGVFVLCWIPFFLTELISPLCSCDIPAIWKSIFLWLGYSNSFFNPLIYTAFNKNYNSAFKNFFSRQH
Mu-type opioid receptor, sequence (P35372 whole entry): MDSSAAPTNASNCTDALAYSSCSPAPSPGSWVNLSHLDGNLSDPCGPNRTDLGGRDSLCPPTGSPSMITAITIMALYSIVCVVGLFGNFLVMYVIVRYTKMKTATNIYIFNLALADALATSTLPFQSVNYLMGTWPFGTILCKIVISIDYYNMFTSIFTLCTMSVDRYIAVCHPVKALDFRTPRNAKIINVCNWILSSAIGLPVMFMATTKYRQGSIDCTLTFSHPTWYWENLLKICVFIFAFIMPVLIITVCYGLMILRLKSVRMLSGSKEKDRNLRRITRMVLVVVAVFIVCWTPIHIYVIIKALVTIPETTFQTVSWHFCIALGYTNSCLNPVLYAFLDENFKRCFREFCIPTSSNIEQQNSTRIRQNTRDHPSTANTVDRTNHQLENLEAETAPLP
ATP-dependent molecular chaperone HSP82, sequence (C4YTQ8 whole entry): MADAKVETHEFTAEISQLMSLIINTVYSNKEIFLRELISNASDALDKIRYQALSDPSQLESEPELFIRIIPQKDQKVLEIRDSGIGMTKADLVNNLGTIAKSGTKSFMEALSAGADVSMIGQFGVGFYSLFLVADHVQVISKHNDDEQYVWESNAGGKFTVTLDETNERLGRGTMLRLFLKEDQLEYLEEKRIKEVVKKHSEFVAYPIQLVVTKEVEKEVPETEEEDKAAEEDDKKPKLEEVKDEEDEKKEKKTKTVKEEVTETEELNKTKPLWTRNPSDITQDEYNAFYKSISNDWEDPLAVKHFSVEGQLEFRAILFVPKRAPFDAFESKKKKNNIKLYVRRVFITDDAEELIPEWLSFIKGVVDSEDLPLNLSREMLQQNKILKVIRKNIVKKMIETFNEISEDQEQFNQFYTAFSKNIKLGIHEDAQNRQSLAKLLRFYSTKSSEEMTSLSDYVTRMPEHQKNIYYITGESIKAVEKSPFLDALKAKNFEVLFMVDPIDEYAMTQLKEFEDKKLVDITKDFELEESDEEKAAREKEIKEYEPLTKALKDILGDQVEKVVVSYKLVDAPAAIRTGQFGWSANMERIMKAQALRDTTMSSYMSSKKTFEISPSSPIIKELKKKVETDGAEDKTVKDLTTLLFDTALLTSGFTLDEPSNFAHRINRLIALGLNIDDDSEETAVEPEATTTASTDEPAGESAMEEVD

O=S(=O)(Cc1cc(-c2ccccc2Cl)no1)c1ccccc1
AC50 [1]: 51.8 µM (active)

CCCCc1ccc(Nc2ncccc2C#N)cc1
IC50 [2]: 17.2 µM (active)
IC50 [3]: 21.3 µM (active)
IC50 [4]: 33.1 µM (active)

COC(=O)c1sccc1NC(=O)CCC1CCCCC1
IC50 [2]: 62.8 µM (active)
IC50 [3]: 27.9 µM (active)
IC50 [4]: > 100 µM (inactive)

CN(C)C(CNC(=O)C1CC(=O)N(Cc2ccccc2)C1)c1ccccc1 (stereo not drawn)
EC50 [5]: > 92.5 µM (inactive)
EC50 [6]: 1.33 µM (active)
EC50 [7]: > 92.5 µM (inactive)
EC50 [8]: > 92.5 µM (inactive)

Cc1cc(C)cc(C(=O)N(CCc2ccccc2)C2=CC3CCC(C2)N3C)c1 (stereo not drawn)
EC50 [5]: > 92.5 µM (inactive)
EC50 [6]: 0.267 µM (active)
EC50 [7]: > 92.5 µM (inactive)
EC50 [8]: 43.9 µM (inactive)

Cc1nn(-c2ccccc2)c(Cl)c1/C=C/C(=O)c1ccc(O)cc1
EC50 [9]: 18.9 µM (active)
EC50 [10]: > 180 µM (inactive)
EC50 [11]: 1.1 µM (active)
EC50 [12]: > 150 µM (inactive)
EC50 [13]: > 53 µM (inactive)
IC50 [14]: > 47.1 µM (inactive)

COc1cc(NC(=O)c2cccc(C)c2)ccc1NC(=O)c1cc2ccccc2o1
EC50 [5]: > 92.4 µM (inactive)
EC50 [7]: > 92.4 µM (inactive)
EC50 [8]: > 92.4 µM (inactive)

COc1cc(OC)c2c(-c3cccc(/C=C/c4ccc(F)cc4)c3)cc(=O)oc2c1
AC50 [1]: 165 µM (active)

Clc1cnc(N/N=C/c2cccs2)c(Cl)c1
AC50 [1]: 62.4 µM (active)
EC50 [15]: 0.136 µM (active)
EC50 [16]: 0.411 µM (active)
